Assay results from paper PMC12238723, “Phase I Clinical Trial of CVL218, a Novel PARP1/2 Inhibitor, in Patients with Advanced Solid Tumors” (MedComm, 2025).

Tested on: patients with advanced solid tumors
Assay: Dose-limiting toxicity, MTD and recommended dose
Type: in vivo
Method: CVL218 was administered orally, and this dose‐escalation trial included nine dose levels: 100 mg QD (50 mg BID), 200 mg QD (100 mg BID), 400 mg QD (200 mg BID), 700 mg QD (350 mg BID), 1000 mg QD (500 mg BID), 1200 mg QD (600 mg BID), 1400 mg QD (700 mg BID), 1700 mg QD (850 mg BID), and 2000 mg QD (1000 mg BID). Patients enrolled in the study received a single oral dose on the first day, followed by continuous multiple dosing (twice a day taking 12 h apart) after 72 h, with the treatment cycle lasting 4 weeks. The period during which patients received a single dose is designated as cycle 0 (C0), lasting 72 h. After this period, patients begin multiple dosing, referred to as cycle 1 (C1). An initial accelerated titration design was employed for the three lowest dose groups, and the “3+3” design was applied starting with the 300 mg BID cohort.
The primary objectives were to assess safety and tolerability as well as to determine the MTD, DLT, and dose recommended for further study. DLT was defined as any of the following events occurring during cycle 0 (including 72 h wash‐out period after a single dose) and cycle 1 per Common Terminology Criteria for Adverse Events (CTCAE) version 5.0: grade 4 anemia; grade 4 neutropenia; grade 3 neutropenia with fever ≥38.5°C; grade 4 thrombocytopenia; grade 3 thrombocytopenia associated with bleeding; grade ≥2 neurotoxicity; any other grade ≥3 nonhematological toxicities (excluding alopecia). The secondary objectives were to assess the PK and preliminary efficacy of CVL218.

CNCc1ccc(-c2cc3cc(F)cc(C(N)=O)c3o2)cc1.Cl [CVL218]
Any DLT (50 mg BID (N = 1)): 0 n (%)
DLT: Increased creatinine (50 mg BID (N = 1)): 0 n (%)
DLT: Renal failure (50 mg BID (N = 1)): 0 n (%)
Any DLT (100 mg BID (N = 1)): 0 n (%)
DLT: Increased creatinine (100 mg BID (N = 1)): 0 n (%)
DLT: Renal failure (100 mg BID (N = 1)): 0 n (%)
Any DLT (200 mg BID (N = 1)): 0 n (%)
DLT: Increased creatinine (200 mg BID (N = 1)): 0 n (%)
DLT: Renal failure (200 mg BID (N = 1)): 0 n (%)
Any DLT (350 mg BID (N = 4)): 0 n (%)
DLT: Increased creatinine (350 mg BID (N = 4)): 0 n (%)
DLT: Renal failure (350 mg BID (N = 4)): 0 n (%)
Any DLT (500 mg BID (N = 4)): 0 n (%)
DLT: Increased creatinine (500 mg BID (N = 4)): 0 n (%)
DLT: Renal failure (500 mg BID (N = 4)): 0 n (%)
Any DLT (600mg BID (N=4)): 0 n (%)
DLT: Increased creatinine (600mg BID (N=4)): 0 n (%)
DLT: Renal failure (600mg BID (N=4)): 0 n (%)
Any DLT (700 mg BID (N = 6)): 1 (16.7) n (%)
DLT: Increased creatinine (700 mg BID (N = 6)): 0 n (%)
DLT: Renal failure (700 mg BID (N = 6)): 1 (16.7) n (%)
Any DLT (850mg BID (N=5)): 2 (40.0) n (%)
DLT: Increased creatinine (850mg BID (N=5)): 2 (40.0) n (%)
DLT: Renal failure (850mg BID (N=5)): 0 n (%)
Any DLT (Overall (N=26)): 3 (11.5) n (%)
DLT: Increased creatinine (Overall (N=26)): 2 (7.7) n (%)
DLT: Renal failure (Overall (N=26)): 1 (3.8) n (%)
recommended dose for further study (oral): 700 mg BID
maximum tolerated dose (MTD) (oral, patients with advanced solid tumors): 700 mg BID
